The values that follow come from patent publication US20090023735A1, “Sulphonamide Derivatives” (priority 2005, published 2009).

Where a name gives a salt, the structure may show the parent alone.

The target in test [1] is T1, α2β1 integrin (Homo sapiens, UniProt P17301).
T1 construct: expressed in transfected cells; host or cells: CHO cell clone
T1 sequence (P17301 30-1181): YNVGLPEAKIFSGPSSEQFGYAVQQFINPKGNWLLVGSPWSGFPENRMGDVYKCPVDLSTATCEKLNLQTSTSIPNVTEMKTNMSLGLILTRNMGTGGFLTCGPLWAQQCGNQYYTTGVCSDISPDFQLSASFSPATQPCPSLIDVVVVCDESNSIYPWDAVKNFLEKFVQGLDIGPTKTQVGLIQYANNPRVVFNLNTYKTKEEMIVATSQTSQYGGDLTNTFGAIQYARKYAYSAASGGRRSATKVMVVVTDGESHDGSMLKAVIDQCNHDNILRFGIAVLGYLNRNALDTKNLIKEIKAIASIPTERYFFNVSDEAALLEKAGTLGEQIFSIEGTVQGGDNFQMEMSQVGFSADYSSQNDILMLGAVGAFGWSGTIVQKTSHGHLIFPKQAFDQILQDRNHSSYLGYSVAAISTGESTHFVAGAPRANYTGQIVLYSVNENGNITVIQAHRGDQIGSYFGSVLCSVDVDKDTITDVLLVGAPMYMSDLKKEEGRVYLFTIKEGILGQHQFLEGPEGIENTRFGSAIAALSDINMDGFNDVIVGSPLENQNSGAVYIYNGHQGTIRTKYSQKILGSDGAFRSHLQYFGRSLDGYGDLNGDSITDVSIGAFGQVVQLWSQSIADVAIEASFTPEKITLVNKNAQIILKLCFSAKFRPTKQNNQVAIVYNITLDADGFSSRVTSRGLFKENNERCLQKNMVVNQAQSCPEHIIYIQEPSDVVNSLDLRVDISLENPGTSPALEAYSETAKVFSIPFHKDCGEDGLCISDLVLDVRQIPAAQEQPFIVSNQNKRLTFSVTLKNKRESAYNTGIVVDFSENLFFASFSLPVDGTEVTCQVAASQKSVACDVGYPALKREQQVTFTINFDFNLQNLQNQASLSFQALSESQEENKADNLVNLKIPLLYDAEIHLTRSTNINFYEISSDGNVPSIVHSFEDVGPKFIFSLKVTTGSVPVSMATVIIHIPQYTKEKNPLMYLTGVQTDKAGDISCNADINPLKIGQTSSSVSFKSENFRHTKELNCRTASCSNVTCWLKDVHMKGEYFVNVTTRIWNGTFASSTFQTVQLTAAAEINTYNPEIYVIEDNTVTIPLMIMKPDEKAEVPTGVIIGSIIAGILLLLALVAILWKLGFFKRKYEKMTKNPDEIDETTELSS
Briefly: CHO-α2β1 cell adhesion on type I collagen. The test is classed as cell-based. The settings on record: CHO cells expressing wild type α2 integrin on collagen type I coated wells, 2 h. As for the experimental part:
Chinese Hamster Ovary (CHO) cell clone expressing wild type α2 integrin was used in cell adhesion assay. Cells were suspended in serum free medium containing 0.1 mg/ml cycloheximide (Sigma) and the compounds were preincubated with the cells prior to transfer to the wells. Cells (150000/well) were allowed to attach on collagen type I coated wells (in the presence and absence of inhibitor compounds) for 2 h at +37° C. and after that non-adherent cells were removed. Fresh serum free medium was added and the living cells were detected using a cell viability kit (Roche) according to the manufacturer's protocol.

For test [2], the system named is Prostate cancer cells (PC-3). Kind of test: Cell invasion assay: invasion of PC-3 cells through Matrigel. The conditions noted are these: Homo sapiens, PC-3, 72 h, read-out: EC50 in cell invasion (μM).
Experimental: Prostate cancer cells (PC-3) expressing α2β1 endogenously were used to test the in vitro anticancer potential of the inhibitors of the present invention.
Inserts were stored at −20° C. Before the experiments inserts were allowed to adjust to the room temperature. 500 μl of serum free media (Ham's F12K medium, 2 mM L-glutamine, 1.5 g/l sodium bicarbonate) was added into the inserts and allowed to rehydrate at 37° C. in cell incubator for two hours. The remaining media was aspirated. PC-3 cells were detached, pelleted and suspended into serum free media (50000 cells/500 μl). 300 μl of cell suspension was added into the insert in the absence (control) or presence of the inhibitor according to the present invention. Inserts were placed on the 24-well plates; each well containing 700 μl of cell culture media with 3% of fetal bovine serum as chemo-attractant. Cells were allowed to invade for 72 hours at 37° C. in cell incubator. Inserts were washed with 700 μl PBS, and fixed with 4% paraformaldehyde for 10 minutes. Paraformaldehyde was aspirated and cells were washed with 700 μl of PBS and inserts were stained by incubation with hematoxylin for 1 minute. The stain was removed by washing the inserts with 700 μl of PBS. Inserts were allowed to dry. Fixed invaded cells were calculated under the microscope. Invasion % was calculated as a comparison to the control.
Test [3] relates to platelet aggregation in whole blood. The conditions noted are these: PFA-100, collagen plus Epinephrin membrane, compared to control (DMSO), FIG. 1.
Experimental: The PFA-100 is a high shear-inducing device that simulates primary haemostasis after injury of a small vessel. The system comprises a test-cartridge containing a biologically active membrane coated with collagen plus Epinephrin. An anticoaculated whole blood sample was run through a capillary under a constant vacuum. […] The time required to obtain full occlusion of the aperture was designated as the “closure time”. Each compound was added to the whole blood sample and the closure time was measured with PFA-100.
Blood was collected from a donor via venipuncture into evacuated blood collection tubes containing 3.2% buffered sodium sitrate as anticoagulant. Blood was aliquoted into 15 mL tubes and treated with either inhibitory compounds or controls (DMSO). Samples were kept at room temperature with rotation for 10 minutes and after that the closure time of the blood was measured.
Acquisitions resulting in a closure time exceeding the range of measurement of the instrument (>300 seconds) were assigned a value of 300 seconds. Mean and standard deviations were calculated for each treatment. Student's t-test was applied to the resultant data.

As usually defined, the inhibition is the share of the control response that was lost under treatment. Turning to `Cn1cccc1C(=O)Nc1ccc(NS(=O)(=O)c2cccc(-c3ccc(F)cc3)c2)cc1` [Compound 442, 1-methyl-1H-pyrrole-2-carboxylic acid [4-(4′-fluoro-bi-phenyl-3-sulfonylamino)-phenyl]-amide], testing at 50 µM in test [1] gave an inhibition of 21%. Consider `CN(C)c1ccc(N(CCn2ccnc2)S(=O)(=O)c2cccc(-c3ccc(F)cc3)c2)cc1` [Compound 358, 4′-fluoro-biphenyl-3-sulfonic acid (4-dimethylamino-phenyl)-(2-imidazol-1-yl-ethyl)-amide], for which, in test [1], the inhibition at 50 µM is 71%.

What is called EC50 is the concentration that produces a half-maximal response. In test [1], `N#Cc1ccc(NS(=O)(=O)c2cccc(-c3ccc(F)cc3)c2)cc1` [Compound 448, 4′-fluoro-biphenyl-3-sulfonic acid (4-cyano-phenyl)-amide] displayed an inhibition at 50 µM of 58%. The EC50 in test [2] was 27 µM. On the same counts, the results for `O=[N+]([O-])c1ccc(NS(=O)(=O)c2cccc(-c3ccc(F)cc3)c2)cc1` [Compound 440, 4′-fluoro-biphenyl-3-sulfonic acid (4-nitro-phenyl)-amide] are 59% and 8.3 µM. Consider `CN(C)c1ccc(N(CCN2CCOCC2)S(=O)(=O)c2cccc(-c3ccc(F)cc3)c2)cc1` [Compound 355, 4′-fluoro-biphenyl-3-sulfonic acid (4-dimethylamino-phenyl)-(2-morpholin-4-yl-ethyl)-amide], for which testing at 50 µM in test [1] gave an inhibition of 18%.

For the compound `COCCN(c1ccc(N(C)C)cc1)S(=O)(=O)c1cccc(-c2ccc(F)cc2)c1` [Compound 353, 4′-fluoro-biphenyl-3-sulfonic acid (4-dimethylamino-phenyl)-(2-methoxy-ethyl)-amide], testing at 50 µM in test [1] gave an inhibition of 11%. In test [1], `O=C(c1ccccc1)c1cccc(NS(=O)(=O)c2cccc(-c3ccc(F)cc3)c2)c1` [Compound 432, 4′-fluoro-biphenyl-3-sulfonic acid (3-benzoyl-phenyl)-amide] gave an inhibition at 50 µM of 72%. In test [2], the concentration for a half-maximal effect (EC50) is 1 µM.

Compound `CC(=O)c1ccc(NS(=O)(=O)c2cccc(-c3ccc(F)cc3)c2)cc1` [Compound 383, 4′-fluoro-biphenyl-3-sulfonic acid (4-acetyl-phenyl)-amide] returned an inhibition at 50 µM in test [1] of 26%. Same read-out and setting: for `O=C(c1ccc(F)cc1)c1ccc(NS(=O)(=O)c2cccc(-c3ccc(F)cc3)c2)cc1` [Compound 458, 4′-fluoro-biphenyl-3-sulfonic acid [4-((4-fluorophenyl)-4-carbonyl)-phenyl]-amide] the value was 66%; for `Cc1cc(NC(=O)c2ccc(NS(=O)(=O)c3cccc(-c4ccc(F)cc4)c3)cc2)no1` [Compound 456, 4-(4′-fluoro-biphenyl-3-sulfonylamino)-N-(5-methyl-isoxazol-3-yl)-benzamide], 13%. Consider `CN(C)CCN(c1ccc(N(C)C)cc1)S(=O)(=O)c1cccc(-c2ccc(F)cc2)c1` [Compound 354, 4′-fluoro-biphenyl-3-sulfonic acid (2-dimethylamino-ethyl)-(4-dimethylamino-phenyl)-amide], for which testing at 50 µM in test [1] gave an inhibition of 78%. On the same count and under the same terms, for `O=C(c1ccccc1)c1ccc(NS(=O)(=O)c2cccc(-c3ccc(F)cc3)c2)cc1` [Compound 384, 4′-fluoro-biphenyl-3-sulfonic acid (4-benzoyl-phenyl)-amide] the value was 65%; for `O=S(=O)(Nc1cccc(-c2ccc(F)cc2)c1)c1ccc(Cl)cc1Cl` [Compound 403, 2,4-cichlorophenylsulfonic acid (3-(4-fluorophenyl)phenyl)-amide], 56%. For the compound `O=C(c1ccccc1)c1ccc(NS(=O)(=O)c2cccc(-c3ccc(F)cc3)c2)cc1` [Compound 434, 4′-fluoro-biphenyl-3-sulfonic acid (4-benzoyl-phenyl)-amide sodium salt], in test [3], the “closure time of the blood” value is listed as “increase the closure time”. Also, in test [1] (CHO), 50 µM produced 78% inhibition.

In turn, `CN(C)c1ccc(N(CCO)S(=O)(=O)c2cccc(-c3ccc(F)cc3)c2)cc1` [Compound 359, 4′-fluoro-biphenyl-3-sulfonic acid (4-dimethylamino-phenyl)-(2-hydroxy-ethyl)-amide] registered an inhibition at 50 µM in test [1] of 42%. The same measure, in the same setting: for `O=S(=O)(Nc1ccc(-c2cnco2)cc1)c1cccc(-c2ccc(F)cc2)c1` [Compound 378, 4′-fluoro-biphenyl-3-sulfonic acid (4-(1,3-oxazol-5-yl)-phenyl)-amide] the value was 22%. As for `CN(c1ccc(NC(=O)N2CCNC2=O)cc1)S(=O)(=O)c1cccc(-c2ccc(F)cc2)c1` [Compound 430, 2-oxo-imidazolidine-1-carboxylic acid {4-[(4′-fluoro-bi-phenyl-3-sulfonyl)-methyl-amino]-phenyl)-amide], testing at 50 µM in test [1] gave an inhibition of 53%. In addition, the EC50 in test [2] was found to be 12 µM.
